Measured values published in PMC12067145 (ACS Medicinal Chemistry Letters, 2025).

Experiments:
HNC4 = HNC4 (Homo sapiens, UniProt Q9Y3Q4); experiment: Cardiac ion channel MPC selectivity panel; assay type: cell-based
[1] = tested on: other K2P channels except TREK-2; experiment: K2P channel selectivity (panel); assay type: cell-based
Text: Herein we describe our continuing work on the K2P family of potassium ion channels with the chemical optimization of a selective and CNS penetrant series of TREK inhibitors, culminating in the discovery of ONO-TR-772 (VU6018042).

Nav1.5 = Nav1.5 (Homo sapiens, UniProt Q14524); experiment: Cardiac ion channel MPC selectivity panel; assay type: cell-based
Sequence of Nav1.5 (Q14524 whole entry): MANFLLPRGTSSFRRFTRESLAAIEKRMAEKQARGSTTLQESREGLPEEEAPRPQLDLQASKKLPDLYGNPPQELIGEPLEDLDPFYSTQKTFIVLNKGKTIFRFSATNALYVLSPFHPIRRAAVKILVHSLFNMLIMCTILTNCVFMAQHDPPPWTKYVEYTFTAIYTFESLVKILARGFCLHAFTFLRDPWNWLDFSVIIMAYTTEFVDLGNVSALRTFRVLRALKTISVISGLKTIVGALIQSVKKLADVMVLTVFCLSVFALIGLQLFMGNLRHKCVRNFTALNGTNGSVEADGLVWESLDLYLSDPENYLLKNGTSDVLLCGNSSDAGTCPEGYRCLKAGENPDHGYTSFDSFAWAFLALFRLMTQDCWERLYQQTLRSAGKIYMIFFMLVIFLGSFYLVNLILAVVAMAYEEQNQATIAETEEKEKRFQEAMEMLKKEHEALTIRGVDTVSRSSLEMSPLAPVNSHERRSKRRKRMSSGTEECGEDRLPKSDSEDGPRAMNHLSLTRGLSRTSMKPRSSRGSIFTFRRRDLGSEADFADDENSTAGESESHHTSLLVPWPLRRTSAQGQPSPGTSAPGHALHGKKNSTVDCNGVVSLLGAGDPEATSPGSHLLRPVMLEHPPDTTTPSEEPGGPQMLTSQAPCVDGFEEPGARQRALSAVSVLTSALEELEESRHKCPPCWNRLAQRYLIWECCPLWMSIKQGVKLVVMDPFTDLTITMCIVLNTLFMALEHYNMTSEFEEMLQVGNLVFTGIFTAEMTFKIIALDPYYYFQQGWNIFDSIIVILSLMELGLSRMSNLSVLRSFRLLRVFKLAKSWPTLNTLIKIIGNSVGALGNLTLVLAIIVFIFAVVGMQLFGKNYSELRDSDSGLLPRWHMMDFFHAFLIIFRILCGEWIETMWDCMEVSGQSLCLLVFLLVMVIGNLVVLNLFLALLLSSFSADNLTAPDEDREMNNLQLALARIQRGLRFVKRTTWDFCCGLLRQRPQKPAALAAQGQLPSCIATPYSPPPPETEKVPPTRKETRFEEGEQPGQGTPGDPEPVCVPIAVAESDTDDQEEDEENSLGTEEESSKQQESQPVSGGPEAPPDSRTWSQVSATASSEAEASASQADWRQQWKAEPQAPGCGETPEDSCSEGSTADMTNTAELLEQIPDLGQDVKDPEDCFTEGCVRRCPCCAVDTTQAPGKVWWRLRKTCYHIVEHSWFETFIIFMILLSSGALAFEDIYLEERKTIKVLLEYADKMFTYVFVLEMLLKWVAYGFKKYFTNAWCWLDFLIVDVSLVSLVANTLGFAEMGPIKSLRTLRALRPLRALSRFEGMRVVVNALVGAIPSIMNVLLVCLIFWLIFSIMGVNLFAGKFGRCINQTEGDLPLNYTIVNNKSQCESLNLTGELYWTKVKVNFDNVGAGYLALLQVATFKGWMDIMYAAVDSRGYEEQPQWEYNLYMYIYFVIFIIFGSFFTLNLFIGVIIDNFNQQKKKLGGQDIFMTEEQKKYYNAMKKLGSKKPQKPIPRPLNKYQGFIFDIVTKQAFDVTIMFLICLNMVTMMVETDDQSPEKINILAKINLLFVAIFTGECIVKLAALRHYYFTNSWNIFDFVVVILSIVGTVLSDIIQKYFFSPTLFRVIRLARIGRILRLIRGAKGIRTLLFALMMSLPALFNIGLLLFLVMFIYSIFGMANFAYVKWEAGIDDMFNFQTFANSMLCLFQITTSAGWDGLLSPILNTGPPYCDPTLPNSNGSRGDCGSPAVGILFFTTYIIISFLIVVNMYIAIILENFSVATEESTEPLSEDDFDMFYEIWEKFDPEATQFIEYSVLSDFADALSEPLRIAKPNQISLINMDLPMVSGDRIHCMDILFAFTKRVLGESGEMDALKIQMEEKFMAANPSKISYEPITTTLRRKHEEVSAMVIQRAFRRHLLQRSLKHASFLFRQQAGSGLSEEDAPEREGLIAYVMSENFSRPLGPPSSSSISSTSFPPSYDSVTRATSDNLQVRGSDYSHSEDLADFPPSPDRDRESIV

[2] = Brain homogenate binding (rat); assay type: in vitro ADME
Method: 0.3% DMSO - ΔRatio of 1 µM control compound)x100
In vitro Plasma protein binding and Brain homogenate binding: Determination of fraction unbound (f u) in plasma was conducted in vitro via equilibrium dialysis using HTDialysis (HTD) membrane plates. The top half of the plate was filled with 100 uL of Dubelco’s Phosphate Buffered Saline, pH 7.4 (DPBS). Compounds were diluted into plasma from each species (5 µM final concentration), which was aliquoted in triplicate to the ‘bottom half’ of the prepared HTD plate wells. The HTD plate was sealed and incubated for 6 hours at 37 °C. […]
The unbound fraction (f u) was calculated following the equation below, and mean values for each species were calculated from 3 replicates. […] Fraction unbound for both plasma and brain samples was determined using Equation 4. […]
The diluted fraction unbound (fu2) in brain was calculated in the same manner by using brain homogenate rather than plasma. Undiluted fraction unbound for the brain was calculated using […]
were incubated in 100 mM potassium phosphate pH 7.4 buffer with 3 mM MgCl2 at 37 °C with constant shaking. […] The in vitro half-life (T 1/2, min, Eq. 1), intrinsic clearance (CLint, mL/min/kg, Eq. 2), and subsequent predicted hepatic clearance (CLhep, mL/min/kg, Eq. 3) were determined employing the following equations: […]

Kir2.2 = Kir2.2 (Homo sapiens, UniProt Q14500); experiment: Cardiac ion channel MPC selectivity panel; assay type: cell-based
Transporter, GABA = Transporter, GABA (Rattus norvegicus, UniProt P23978); experiment: Eurofins lead profiling screen (radioligand binding)
Purinergic P2X = experiment: as above; design: species or system Rat
Histamine H3 = Histamine H3 (Homo sapiens, UniProt Q9Y5N1); experiment: as above
Sequence of Histamine H3 (Q9Y5N1 whole entry): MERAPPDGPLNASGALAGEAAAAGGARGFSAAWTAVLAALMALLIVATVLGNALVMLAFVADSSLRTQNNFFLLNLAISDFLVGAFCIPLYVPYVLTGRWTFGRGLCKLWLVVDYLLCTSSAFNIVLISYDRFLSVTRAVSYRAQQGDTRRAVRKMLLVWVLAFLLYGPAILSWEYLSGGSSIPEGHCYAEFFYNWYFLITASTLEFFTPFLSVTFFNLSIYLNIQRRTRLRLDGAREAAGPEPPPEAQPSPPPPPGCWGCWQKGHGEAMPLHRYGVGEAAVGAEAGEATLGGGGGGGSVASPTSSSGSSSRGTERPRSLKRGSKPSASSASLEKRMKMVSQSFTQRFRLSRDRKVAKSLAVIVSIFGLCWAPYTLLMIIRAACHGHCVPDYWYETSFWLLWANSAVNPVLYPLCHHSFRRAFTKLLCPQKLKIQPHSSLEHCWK

Phorbol Ester = experiment: as above; design: species or system Mouse
Muscarinic M2 = Muscarinic M2 (Homo sapiens, UniProt P08172); experiment: as above
Sequence of Muscarinic M2 (P08172 whole entry): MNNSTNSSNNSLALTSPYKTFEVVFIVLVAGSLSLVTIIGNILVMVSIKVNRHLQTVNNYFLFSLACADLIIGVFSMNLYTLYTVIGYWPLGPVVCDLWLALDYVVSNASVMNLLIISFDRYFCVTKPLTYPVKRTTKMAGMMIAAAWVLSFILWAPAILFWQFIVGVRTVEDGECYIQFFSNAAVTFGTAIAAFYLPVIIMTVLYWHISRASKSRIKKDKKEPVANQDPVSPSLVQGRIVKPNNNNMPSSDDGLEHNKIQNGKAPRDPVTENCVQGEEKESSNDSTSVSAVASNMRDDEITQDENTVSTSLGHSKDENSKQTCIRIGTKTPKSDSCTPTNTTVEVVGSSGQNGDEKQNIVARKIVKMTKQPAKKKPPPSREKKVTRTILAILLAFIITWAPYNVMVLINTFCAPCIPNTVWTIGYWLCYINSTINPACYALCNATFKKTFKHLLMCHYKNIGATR

Adenosine A2A = Adenosine A2A (Homo sapiens, UniProt P29274); experiment: as above
Sequence of Adenosine A2A (P29274 whole entry): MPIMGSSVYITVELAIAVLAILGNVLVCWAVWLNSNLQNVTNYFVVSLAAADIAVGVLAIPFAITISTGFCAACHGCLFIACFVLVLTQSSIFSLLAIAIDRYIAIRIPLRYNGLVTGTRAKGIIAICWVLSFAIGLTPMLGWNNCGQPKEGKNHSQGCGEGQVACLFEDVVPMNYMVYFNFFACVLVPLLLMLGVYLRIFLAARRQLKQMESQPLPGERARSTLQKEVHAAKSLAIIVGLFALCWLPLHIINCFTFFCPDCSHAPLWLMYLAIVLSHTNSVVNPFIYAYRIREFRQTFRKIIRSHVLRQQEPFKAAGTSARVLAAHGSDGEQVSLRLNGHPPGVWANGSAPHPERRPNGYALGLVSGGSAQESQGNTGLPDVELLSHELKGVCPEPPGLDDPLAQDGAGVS

Dopamine D1 = Dopamine D1 (Homo sapiens, UniProt P21728); experiment: as above
Sequence of Dopamine D1 (P21728 whole entry): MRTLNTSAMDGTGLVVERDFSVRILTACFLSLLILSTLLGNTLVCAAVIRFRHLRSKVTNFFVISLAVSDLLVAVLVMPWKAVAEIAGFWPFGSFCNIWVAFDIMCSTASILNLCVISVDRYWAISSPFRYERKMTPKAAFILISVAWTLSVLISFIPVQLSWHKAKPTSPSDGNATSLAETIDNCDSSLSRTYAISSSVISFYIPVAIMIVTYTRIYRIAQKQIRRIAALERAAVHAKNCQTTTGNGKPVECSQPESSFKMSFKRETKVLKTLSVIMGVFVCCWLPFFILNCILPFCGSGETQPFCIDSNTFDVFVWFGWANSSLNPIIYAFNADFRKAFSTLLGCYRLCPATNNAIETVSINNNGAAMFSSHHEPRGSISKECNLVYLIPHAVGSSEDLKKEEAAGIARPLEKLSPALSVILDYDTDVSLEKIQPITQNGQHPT

Opiate μ (OP3, MOP) = Opiate μ (OP3, MOP) (Homo sapiens, UniProt P35372); experiment: as above
Sequence of Opiate μ (OP3, MOP) (P35372 whole entry): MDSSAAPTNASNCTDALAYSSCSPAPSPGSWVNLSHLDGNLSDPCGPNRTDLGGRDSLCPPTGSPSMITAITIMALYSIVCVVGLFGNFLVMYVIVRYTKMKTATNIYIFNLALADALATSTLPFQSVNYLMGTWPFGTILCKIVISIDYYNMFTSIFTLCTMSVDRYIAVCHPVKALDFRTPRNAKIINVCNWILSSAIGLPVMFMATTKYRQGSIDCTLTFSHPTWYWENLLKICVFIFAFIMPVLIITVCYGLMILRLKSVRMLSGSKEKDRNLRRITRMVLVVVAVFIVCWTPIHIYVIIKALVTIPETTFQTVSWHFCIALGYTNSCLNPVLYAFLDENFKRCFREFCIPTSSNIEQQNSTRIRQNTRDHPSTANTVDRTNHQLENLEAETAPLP

Histamine H1 = Histamine H1 (Homo sapiens, UniProt P35367); experiment: as above
Sequence of Histamine H1 (P35367 whole entry): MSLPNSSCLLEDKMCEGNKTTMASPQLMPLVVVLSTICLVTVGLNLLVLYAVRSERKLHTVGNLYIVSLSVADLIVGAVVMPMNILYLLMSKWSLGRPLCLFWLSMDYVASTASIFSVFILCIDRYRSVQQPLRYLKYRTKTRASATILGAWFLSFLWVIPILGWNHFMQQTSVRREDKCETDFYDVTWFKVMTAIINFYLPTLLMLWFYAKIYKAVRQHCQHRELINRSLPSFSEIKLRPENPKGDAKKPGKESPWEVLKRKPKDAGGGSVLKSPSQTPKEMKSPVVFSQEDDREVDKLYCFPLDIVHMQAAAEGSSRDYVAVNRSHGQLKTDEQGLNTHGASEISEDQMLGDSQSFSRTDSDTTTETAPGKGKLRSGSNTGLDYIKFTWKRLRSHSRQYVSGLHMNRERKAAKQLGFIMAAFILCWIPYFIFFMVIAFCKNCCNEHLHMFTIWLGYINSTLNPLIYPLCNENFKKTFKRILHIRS

Adrenergic α1A = Adrenergic α1A (Rattus norvegicus, UniProt P43140); experiment: as above
Prostanoid EP4 = Prostanoid EP4 (Homo sapiens, UniProt P35408); experiment: as above
GABAB1A = GABAB1A (Homo sapiens, UniProt Q9UBS5); experiment: as above
Adrenergic α1B = Adrenergic α1B (Rattus norvegicus, UniProt P15823); experiment: as above

| Structure (SMILES) | % at 10 μM, HNC4 (HNC4) | activity versus other K2P channels except TREK-2 [1] | % at 10 μM, Nav1.5 (Nav1.5) | brain homogenate binding rat [2] | % at 10 μM, Kir2.2 (Kir2.2) | inhibition at 10 µM (Transporter, GABA) | % Inhibition at 10 µM (Purinergic P2X) | inhibition at 10 µM (Histamine H3) | % Inhibition at 10 µM (Phorbol Ester) | inhibition at 10 µM (Muscarinic M2) | inhibition at 10 µM (Adenosine A2A) | inhibition at 10 µM (Dopamine D1) | inhibition at 10 µM (Opiate μ (OP3, MOP)) | inhibition at 10 µM (Histamine H1) | inhibition at 10 µM (Adrenergic α1A) | inhibition at 10 µM (Prostanoid EP4) | inhibition at 10 µM (GABAB1A) | inhibition at 10 µM (Adrenergic α1B) |
| --- | --- | --- | --- | --- | --- | --- | --- | --- | --- | --- | --- | --- | --- | --- | --- | --- | --- | --- |
| Cc1cc(C#Cc2ccc(F)cc2)cnc1NC(=O)c1cc(NC(=O)OC(C)(C)C)ccc1Cl [Compound 14c] | < 50% | > 10 µM | < 50% | > 99.9% | 52% | – | – | – | – | – | – | – | – | – | – | – | – | – |
| O=C(NCc1ccc(OC(F)(F)F)cc1F)c1ccc2ncnn2c1 [ONO-2920632] | – | – | – | – | – | 19% | 1% | 4% | -7% | 0% | 3% | 8% | 15% | 12% | 40% | 19% | 0% | 11% |
